The subject of data set [1] is mPTP. Nature of the data set: mPTP activity assay in isolated rat brain mitochondria. Format: biochemical. The following applies: for mPTP Rat brain pIC50: isolated rat brain mitochondria. Here is the method: MPTP activity was measured in brain mitochondria freshly isolated from female Sprague Dawley (250 to 300 gram) rats. Anaesthetised rats were perfused in-situ with ˜40 ml cold Dulbecco's Phosphate Buffered Saline (DPBS), then brains dissected and transferred into 30 ml Isolation Buffer (225 mM mannitol, 75 mM sucrose, 1 mM EGTA, adjusted to pH 7.4 with 1 M NaOH). The brain was minced using tweezers and a scalpel into ˜5 mm pieces then transferred into a 50 ml Potterton Dounce homogenization tube on ice containing 10 ml ice-cold isolation buffer (as above with addition of Complete Protease inhibitor; 1 tablet per 50 ml buffer). Homogenisation was carried out using a teflon pestle at 1800 rpm. The slurry was centrifuged at 2000 g for 10 min at 4° C., then the supernatant centrifuged at 12,000 g for 9 min. The pellet was resuspended with a dounce homogeniser in isolation buffer as above but with the addition of 0.02% digitonin, centrifuged at 12,000 g for 11 min and finally resuspended in 5 ml modified isolation buffer (as above but with EGTA reduced to 0.1 mM).
Test compounds were prepared in 384 well polypropylene assay plates as described above for the liver mitochondria assay. A stock mitochondria/Fluo5N assay solution was prepared in 5.6 ml assay buffer (120 mM mannitol, 40 mM MOPS, 5 mM KH2PO4, 60 mM KCl, 10 mM pyruvate, 2 mM malate, 2 mM MgCl2, 20 μM ADP, 1.26 μM oligomycin A, adjusted to pH 7.4) supplemented with Fluo5N pentapotassium salt (2 μM) and 1 ml mitochondria suspension, then transferred (15 μl) into the assay plate containing test compounds and incubated for 10 min at RT. Assay plates were then transferred to a FLIPR Tetra plate reader (Molecular Devices). Dye fluorescence was then measured every 3 sec for a total of 10 min. After 12 sec, a 2.5 μl bolus of Ca2+(75 μM) was added from a source plate containing 675 μM CaCl2 in FLIPR assay buffer. IC50 values for test compounds were calculated using the fluorescence value collected at the 10 min timepoint with % inhibition calculated using the DMSO control and cyclosporin A values at […].

A short description of data set [2]: FaSSIF solubility. The data set is classed as physicochemical. The following applies: kinetic from dmso stock, Fasted state simulated intestinal fluid, 2 hr at 25° C. The method, then:
Test compounds were prepared as 10 mM stocks in DMSO and 15 μl samples transferred in duplicate into 1.5 mL glass flat bottom vials (BioTech Solutions). Fasted state simulated intestinal fluid (FaSSIF) or PBS (pH 7.4) was added to each vial to final volume of 500 μl. One PTFE encapsulated stir stick (V&P Scientific) was placed in each vial before sealing with PTFE/SIL plugs (BioTech Solutions). Vials were shaken at 1100 rpm for 2 hr at 25° C. Samples were then filtered through MultiScreen Solvinert filter plates (Millipore) via vacuum filtration. Aliquots of filtrate (5 μl) plus 5 μl DMSO were diluted in 490 μl 50% acetonitrile in water containing internal standard. The filtrate was analysed and quantified against a standard of known concentration using LC-MS/MS. Solubility values of the test compound and control compound were calculated as follows: [Sample]=(Area ratiosample*INJ VOL STD*DFsample*[STD])/(Area ratio STD*INJ VOLsample).

Data set [3] in a line: Microsomal clearance assay, rat liver microsomes. The data set is classed as in vitro ADME. The following applies: average value from two experiments, read-out: Rat liver microsomes intrinsic clearance (CLint). Here is the method:
The microsomal stability of test compounds was evaluated using rat liver microsomes (BioIVT) with and without the cofactors nicotinamide adenine dinucleotide phosphate (NADPH) and uridine-diphosphate-glucuronic acid (UDPGA). Reactions were performed in a final volume of 250 μl pre-warmed (37° C.) 100 mM phosphate buffer containing 5 mM MgCl2, 0.025 mg/ml alamethicin, and 0.5 mg/ml rat liver microsomes. NADPH and UDPGA were included at 1 mM and 2 mM respectively, where appropriate. Reactions were started with the addition of 1 μM (final concentration) test compound. Verapamil was used as the positive control. Solutions were incubated in a water bath at 37° C. and aliquots collected at 0.5, 5, 15, 30 and 60 min. Reactions were stopped by the addition of 5 volumes of cold acetonitrile with internal standards (200 nM caffeine and 100 nM tolbutamide). Samples were centrifuged at 3220 g for 40 min. An aliquot of supernatant was diluted 1:1 In ultra-pure H20, then used for LC-MS/MS analysis. Peak areas were determined from extracted ion chromatograms. The slope value, k, was determined by linear regression of the natural logarithm of the remaining percentage of the parent drug vs. incubation time curve. The in vitro half-life (in vitro t1/2) was determined from the slope value: in vitro t1/2=0.693/k. Conversion of the in vitro t1/2 (min) into the in vitro intrinsic clearance (in vitro CLint, in μL/min/mg protein) was done using the following equation (mean of duplicate determinations): in vitro Clint=(0.693/t1/2)*(Vol of incubation (μl)/amount of protein (mg)).

The nature of data set [4]: Hepatocyte clearance assay, human. Format: in vitro ADME. The following applies: cryopreserved primary human hepatocytes, average value from two experiments, read-out: Human heps intrinsic clearance (CLint). The method, then:
In vitro clearance studies were performed in primary rat and human hepatocytes (BioIVT). Vials of cryopreserved rat or human hepatocytes were thawed in a 37° C. water bath for 2 min. Cells were transferred into thawing medium (Williams' Medium E containing 30% Percoll, 1× GlutaMAX-1, 15 mM HEPES, 5% fetal bovine serum (FBS), 4 μg/ml insulin, 1 μM dexamethasone), centrifuged at 100 g for 10 min then resuspended in culture medium (Leibovitz's L-15 Medium) at a concentration of 0.5×10^6 viable cells/mL (number of viable cells assessed using AO/PI staining). Hepatocytes (198 μL) were transferred into wells of a 96-well non-coated plate and placed in a 37° C. incubator for 10 min. Test compound solutions were prepared from 10 mM stocks in DMSO, diluted to 100 μM in 50% (v/v in water) acetonitrile. Test compound samples (2 μl) were added to each well of hepatocytes and incubated at 37° C. Samples (25 μl) were collected at t=0, 15, 30, […] and 120 min, mixed with 6 volumes (150 μl) of acetonitrile containing internal standard (100 nM alprazolam, 200 nM caffeine and 100 nM tolbutamide), vortexed for 5 min and centrifuged for 45 min at 3220 g. An aliquot of supernatant (100 μL) was diluted with 100 μL ultra-pure water, and the mixture was used for LC/MS/MS analysis. All incubations were performed in duplicate. Peak areas were determined from extracted ion chromatograms. The slope value, k, was determined by linear regression of the natural logarithm of the remaining percentage of the parent drug vs. incubation time curve. The in vitro half-life (in vitro t1/2) was determined from the slope value: in vitro t1/2=0.693/k. Conversion of the in vitro t1/2 (in min) into the in vitro intrinsic clearance (in vitro CLint, in μL/min/1×10^6 cells) was done using the following equation (mean of duplicate determinations): • in vitro CLint=kV/N • V=incubation volume (0.2 mL) • N=number of hepatocytes per well (0.1×10^6 cells). Microsomal Clearance Assay

≈ marks a conversion by molar mass, not a printed value.

We go through four molecules from patent publication US12497359B2, “Acrylamide derivatives” (NRG Therapeutics Ltd, priority 2020, dated 2025).

With `O=C(/C=C/c1ccc2cn[nH]c2c1)N[C@@H]1CCc2ccccc21` [Example 3, (R,E)-N-(2,3-dihydro-1H-inden-1-yl)-3-(1H-indazol-6-yl)acrylamide], in data set [1], the “mPTP Rat brain pIC50” value was determined as 7.3. Besides, in data set [2], the solubility (usually the concentration that dissolves in the medium under given conditions) at 2 h was 7 µM (≈ 2.12 µg/mL). Besides, in data set [3], the microsomal CLint at 1 µM turned out to be 52 µL/min/mg.

As to `COCc1ccccc1NC(=O)/C=C/c1ccc2cn[nH]c2c1` [Example 29, (E)-3-(1H-indazol-6-yl)-N-(2-(methoxymethyl)phenyl)acrylamide], in data set [1], the “mPTP Rat brain pIC50” value is listed as 6.8. In data set [2], this molecule showed a solubility at 2 h of 73 µM (≈ 22.4 µg/mL). The microsomal CLint at 1 µM in data set [3] was 10 µL/min/mg. For the same molecule, the hepatocyte CLint at 1 µM in data set [4] is less than 3 µL/min/1e6 cells.

Regarding `C[C@H]1Cc2ccccc2[C@@H]1NC(=O)/C=C/c1ccc2cn[nH]c2c1` (single isomer, unassigned) [Example 14c], the “activity in the rat brain mitochondria assay” value in data set [1] (comparison among Example compounds, in words) was “highest activity”. Moreover, in data set [1], the “mPTP Rat brain pIC50” value is 8.4. Further, the concentration in solution in data set [2] (solubility at 2 h) came to 8 µM (≈ 2.54 µg/mL). The hepatocyte CLint at 1 µM in data set [4] turned out to be 40.4 µL/min/1e6 cells.

As for `C[C@@H]1COc2ccccc2[C@@H]1NC(=O)/C=C/c1ccc2cn[nH]c2c1` (single isomer, unassigned) [Example 15d, (E)-3-(1H-indazol-6-yl)-N-(3-methylchroman-4-yl)acrylamide], the “mPTP Rat brain pIC50” value in data set [1] came out at 7.6. Further, the solubility at 2 h in data set [2] was 7 µM (≈ 2.33 µg/mL). In addition, in data set [3], the microsomal CLint at 1 µM was less than 3 µL/min/mg. In addition, the hepatocyte CLint at 1 µM in data set [4] was less than 3 µL/min/1e6 cells.
